Laboratory results published in patent publication US8426424B2, “Certain substituted amides, method of making, and method of use thereof” (CGI Pharmaceuticals, Inc., priority 2008, dated 2013).

- melting point: 178 to 179 °C
SMILES: Cc1c(NC(=O)c2cc3c(s2)C2CCC3C2)cccc1-c1cn(C)c(=O)c(Nc2ccc(C3C(=O)N(C)CCN3C)cc2)n1 (stereo not shown) [1q, N-(3-(6-(4-(1,4-Dimethyl-3-oxopiperazin-2-yl)phenylamino)-4-methyl-5-oxo-4,5-dihydropyrazin-2-yl)-2-methylphenyl)-4,5,6,7-tetrahydro-4,7-methanobenzo[b]thiophene-2-carboxamide]
